Assay results: ChEMBL document CHEMBL2146453, “Synthesis of novel ursolic acid heterocyclic derivatives with improved abilities of antiproliferation and induction of p53, p21waf1 and NOXA in pancreatic cancer cells” (Bioorg Med Chem, 2012)
The source made the active and inactive calls. The rule behind the calls is not given here.

How the values were obtained:
ASPC1 [1] = assay: Cell cycle arrest in human AsPC1 cells assessed as G2/M phase cells at 4 uM after 24 hrs by flow cytometric analysis (reference value: 20.7%); assay type: functional
ASPC1 [2] = assay: Cell cycle arrest in human AsPC1 cells assessed as S phase cells at 10 uM after 24 hrs by flow cytometric analysis (reference value: 12.6%); assay type: functional
ASPC1 [3] = assay: Induction of apoptosis in human AsPC1 cells assessed as sub-G1 phase cells at 8 uM after 24 hrs by flow cytometric analysis (reference value: 1%); assay type: functional
ASPC1 [4] = assay: Cell cycle arrest in human AsPC1 cells assessed as S phase cells at 8 uM after 24 hrs by flow cytometric analysis (reference value: 12.6%); assay type: functional
ASPC1 [5] = assay: Cell cycle arrest in human AsPC1 cells assessed as S phase cells at 2 uM after 24 hrs by flow cytometric analysis (reference value: 12.6%); assay type: functional
ASPC1 [6] = assay: Cell cycle arrest in human AsPC1 cells assessed as G1 phase cells at 4 uM after 24 hrs by flow cytometric analysis (reference value: 25.4%); assay type: functional
ASPC1 [7] = assay: Ratio of ursolic acid IC50 to compound IC50 for human AsPC1 cells; assay type: functional
PC-3 = assay: Cytotoxicity against human PC3 cells after 72 hrs by MTT assay; assay type: functional, cell-based; conditions: PC-3, 72 h
ASPC1 [8] = assay: Cell cycle arrest in human AsPC1 cells assessed as G1 phase cells at 8 uM after 24 hrs by flow cytometric analysis (reference value: 25.4%); assay type: functional
A549 = assay: Cytotoxicity against human A549 cells after 72 hrs by MTT assay; assay type: functional, cell-based; conditions: A549, 72 h
MIA PaCa-2 = assay: Cytotoxicity against human MIAPaCa2 cells after 72 hrs by MTT assay; assay type: functional, cell-based; conditions: MIA PaCa-2, 72 h
ASPC1 [9] = assay: Cytotoxicity against human AsPC1 cells after 72 hrs by MTT assay; assay type: functional, cell-based; conditions: ASPC1, 72 h
ASPC1 [10] = assay: Cell cycle arrest in human AsPC1 cells assessed as G1 phase cells at 6 uM after 24 hrs by flow cytometric analysis (reference value: 25.4%); assay type: functional
MCF7 = assay: Cytotoxicity against human MCF7 cells after 72 hrs by MTT assay; assay type: functional, cell-based; conditions: MCF7, 72 h
ASPC1 [11] = assay: Cell cycle arrest in human AsPC1 cells assessed as S phase cells at 6 uM after 24 hrs by flow cytometric analysis (reference value: 12.6%); assay type: functional
PANC-1 = assay: Cytotoxicity against human PANC1 cells after 72 hrs by MTT assay; assay type: functional, cell-based; conditions: PANC-1, 72 h
ASPC1 [12] = assay: Induction of apoptosis in human AsPC1 cells assessed as sub-G1 phase cells at 2 uM after 24 hrs by flow cytometric analysis (reference value: 1%); assay type: functional
ASPC1 [13] = assay: Cell cycle arrest in human AsPC1 cells assessed as G1 phase cells at 10 uM after 24 hrs by flow cytometric analysis (reference value: 25.4%); assay type: functional
ASPC1 [14] = assay: Upregulation of p53 in human AsPC1 cells at 2 to 10 uM after 24 hrs by Western blot analysis; assay type: functional, cell-based
ASPC1 [15] = assay: Upregulation of p21 in human AsPC1 cells at 6 to 10 uM after 24 hrs by Western blot analysis; assay type: functional, cell-based
ASPC1 [16] = assay: Induction of apoptosis in human AsPC1 cells assessed as sub-G1 phase cells at 6 uM after 24 hrs by flow cytometric analysis (reference value: 1%); assay type: functional
ASPC1 [17] = assay: Upregulation of NOXA in human AsPC1 cells at 6 to 10 uM after 24 hrs by Western blot analysis; assay type: functional, cell-based
ASPC1 [18] = assay: Induction of apoptosis in human AsPC1 cells assessed as sub-G1 phase cells at 4 uM after 24 hrs by flow cytometric analysis (reference value: 1%); assay type: functional
ASPC1 [19] = assay: Cell cycle arrest in human AsPC1 cells assessed as G2/M phase cells at 6 uM after 24 hrs by flow cytometric analysis (reference value: 20.7%); assay type: functional
ASPC1 [20] = assay: Cell cycle arrest in human AsPC1 cells assessed as S phase cells at 4 uM after 24 hrs by flow cytometric analysis (reference value: 12.6%); assay type: functional
ASPC1 [21] = assay: Downregulation of Mcl1 in human AsPC1 cells at 2 to 10 uM after 24 hrs by Western blot analysis; assay type: functional, cell-based
ASPC1 [22] = assay: Induction of apoptosis in human AsPC1 cells assessed as sub-G1 phase cells at 10 uM after 24 hrs by flow cytometric analysis (reference value: 1%); assay type: functional
HepG2 = assay: Cytotoxicity against human HepG2 cells after 72 hrs by MTT assay; assay type: functional, cell-based; conditions: HepG2, 72 h
ASPC1 [23] = assay: Cell cycle arrest in human AsPC1 cells assessed as G2/M phase cells at 8 uM after 24 hrs by flow cytometric analysis (reference value: 20.7%); assay type: functional
ASPC1 [24] = assay: Cell cycle arrest in human AsPC1 cells assessed as G1 phase cells at 2 uM after 24 hrs by flow cytometric analysis (reference value: 25.4%); assay type: functional
ASPC1 [25] = assay: Cell cycle arrest in human AsPC1 cells assessed as G2/M phase cells at 2 uM after 24 hrs by flow cytometric analysis (reference value: 20.7%); assay type: functional
ASPC1 [26] = assay: Cell cycle arrest in human AsPC1 cells assessed as G2/M phase cells at 10 uM after 24 hrs by flow cytometric analysis (reference value: 20.7%); assay type: functional

## COC(=O)[C@]12CC[C@@H](C)[C@H](C)[C@H]1C1=CC[C@@H]3[C@@]4(C)C/C(=C/n5cnnc5)C(=O)C(C)(C)[C@@H]4CC[C@@]3(C)[C@]1(C)CC2
ASPC1 [1]
  Activity: 14.7%
ASPC1 [2]
  Activity: 10.5%
ASPC1 [3]
  Activity: 3.4%
ASPC1 [4]
  Activity: 10.1%
ASPC1 [5]
  Activity: 9.1%
ASPC1 [6]
  Activity: 27.9%
ASPC1 [7]
  Ratio IC50: 7
PC-3
  IC50: 3 µM
ASPC1 [8]
  Activity: 31.9%
A549
  IC50: 4.9 µM
MIA PaCa-2
  IC50: 4 µM
ASPC1 [9]
  IC50: 1.9 µM
ASPC1 [10]
  Activity: 36.6%
MCF7
  IC50: 2.3 µM
ASPC1 [11]
  Activity: 9.5%
PANC-1
  IC50: 3.5 µM
ASPC1 [12]
  Activity: 0.7%
ASPC1 [13]
  Activity: 27.3%
ASPC1 [14]
  Activity: Active
ASPC1 [15]
  Activity: Active
ASPC1 [16]
  Activity: 1.2%
ASPC1 [17]
  Activity: Active
ASPC1 [18]
  Activity: 0.5%
ASPC1 [19]
  Activity: 24.1%
ASPC1 [20]
  Activity: 9.6%
ASPC1 [21]
  Activity: inactive
ASPC1 [22]
  Activity: 13.2%
HepG2
  IC50: 3.2 µM
ASPC1 [23]
  Activity: 23.4%
ASPC1 [24]
  Activity: 23.9%
ASPC1 [25]
  Activity: 14.9%
ASPC1 [26]
  Activity: 28.8%
